# Source: patent US20250262222A1, “HETEROCYCLIC COMPOUNDS, COMPOSITIONS THEREOF, AND METHODS OF TREATMENT THEREWITH” (BeiGene Switzerland GmbH, priority 2022, published 2025)
# Key:
# [1] = system: pERK1/2(THR202/TYR204) level in SW620 cell line; test: KRAS G12V pERK assay; assay type: cell-based; details: Homo sapiens, SW-620; SW620 cells, 2 hrs compound treatment, HTRF
# Experimental: (§1) SW620 cell line was used in this study. Cells were maintained in RPMI 1640 supplemented with 10% fetal bovine serum (Thermo Fisher), 50 units/mL penicillin and streptomycin (Thermo Fisher) and kept at 37° C. in a humidified atmosphere of 5% CO2 in air. Cells were reinstated from frozen stocks that were laid down within 30 passages from the original cells purchased. 40000 cells per well were seeded into a 96-well plate and incubated overnight. Cells were treated with a 10-point dilution series. The final compound concentration is from 0 to 10 μM. After 2 hrs compound treatment, cells were lysed, and the pERK1/2(THR202/TYR204) level in the cell lysates was detected by HTRF kit (Cisbio). In brief, a total of 16 μL of cell lysate from each well of a 96-well plate was transferred to a 384-well white assay plate. Lysate from each well was incubated with 2 μL of Eu3+-cryptate (donor) labeled anti-phospho-ERK1/2 and 2 μL of D2 (acceptor) labeled anti-phospho-ERK1/2 antibodies (Cisbio) overnight in dark at room temperature. When donor and acceptor are in close proximity, excitation of the donor with laser triggers a Fluorescence Resonance Energy Transfer (FRET) towards the acceptor, which in turn fluoresces at 655 nm wavelength. FRET signals were measured using a PHERAstar FSX reader (BMG Labtech). IC50 determination was performed by fitting the curve of percent inhibition versus the log of the inhibitor concentration using Dotmatics.
# [2] = system: pERK1/2(THR202/TYR204) level in AsPC-1 cell line; test: KRAS G12D pERK assay; assay type: cell-based; details: Homo sapiens, ASPC1, 2 h, AsPC-1 cells, 2 h compound treatment, HTRF
# Experimental: as §1, with “AsPC-1” for “SW620”, “RPMI-1640” for “RPMI 1640”, “30000” for “40000”, “h” for “hrs”
IC50 [1] [nM],Compound,IC50 [2] [nM]
178,"C#Cc1c(F)ccc2cc(O)cc(-c3cc4c5c(nc(OC[C@@]67CCCN6C[C@H](F)C7)nc5c3F)N3CCOC[C@H]3CO4)c12 [Example 2, 5-ethynyl-6-fluoro-4-((S)-4-fluoro-2-(((2R,7aS)-2-fluorotetrahydro-1H-pyrrolizin-7a(5H)-yl)methoxy)-8a,9,11,12-tetrahydro-8H-[1,4]oxazino[3′,4′:3,4][1,4]oxazepino[5,6,7-de]quinazolin-5-yl)naphthalen-2-ol]",–
43,"C#Cc1c(F)ccc2cc(O)cc(-c3nc4c5c(nc(OCC6(CN7CCOCC7)CC6)nc5c3F)N3CCOC[C@H]3CO4)c12 [Example 8, (S)-5-ethynyl-6-fluoro-4-(1-fluoro-11-((1-(morpholinomethyl)cyclopropyl)methoxy)-5a,6,8,9-tetrahydro-5H-4,7-dioxa-3,9a,10,12-tetraazabenzo[4,5]cyclohepta[1,2,3-de]naphthalen-2-yl)naphthalen-2-ol]",–
–,"Cc1c(F)c(N)cc(-c2nc3c4c(nc(OCC5(C(F)F)COC5)nc4c2F)N2C[C@H]4CC[C@H](N4)[C@H]2CCO3)c1C(F)(F)F [Example 31, 5-((6aR,7S,10R)-13-((3-(difluoromethyl)oxetan-3-yl)methoxy)-1-fluoro-5,6,6a,7,8,9,10,11-octahydro-4-oxa-3,11a,12,14,15-pentaaza-7,10-methanocyclohepta[4,5]cyclo-octa[1,2,3-de]naphthalen-2-yl)-2-fluoro-3-methyl-4-(trifluoromethyl)aniline]",162
–,"Cc1nc(N)cc(-c2nc3c4c(nc(OCC56COC(C5)C6)nc4c2F)N2CC4CCC(N4)[C@H]2CCO3)c1C(F)(F)F (stereo in doubt) [Example 42, 4-((6aR,7R,10S)-13-((2-oxabicyclo[2.1.1]hexan-4-yl)methoxy)-1-fluoro-5,6,6a,7,8,9,10,11-octahydro-4-oxa-3,11a,12,14,15-pentaaza-7,10-methanocyclohepta[4,5]cyclo-octa[1,2,3-de]naphthalen-2-yl)-6-methyl-5-(trifluoromethyl)pyridin-2-amine]",1850
–,"CN1C(=O)OC2CC1(COc1nc3c4c(nc(-c5cc(N)cc(Cl)c5C(F)(F)F)c(F)c4n1)OCC[C@@H]1[C@@H]4CC[C@H](CN31)N4)C2 [Example 46, 5-((((6aR,7S,10R)-2-(5-amino-3-chloro-2-(trifluoromethyl)phenyl)-1-fluoro-5,6,6a,7,8,9,10,11-octahydro-4-oxa-3,11a,12,14,15-pentaaza-7,10-methanocyclohepta[4,5]cyclo-octa[1,2,3-de]naphthalen-13-yl)oxy)methyl)-4-methyl-2-oxa-4-azabicyclo[3.1.1]heptan-3-one]",4860
–,"CC12CCC(COc3nc4c5c(nc(-c6cc(N)cc(Cl)c6C(F)(F)F)c(F)c5n3)OCC[C@@H]3[C@@H]5CC[C@H](CN43)N5)(CO1)C2 [Example 36, 3-chloro-5-((6aR,7S,10R)-1-fluoro-13-((1-methyl-2-oxabicyclo[2.2.1]heptan-4-yl)methoxy)-5,6,6a,7,8,9,10,11-octahydro-4-oxa-3,11a,12,14,15-pentaaza-7,10-methanocyclohepta[4,5]cyclo-octa[1,2,3-de]naphthalen-2-yl)-4-(trifluoromethyl)aniline]",106
–,"CCOC(=O)N1CC(C)(COc2nc3c4c(nc(-c5cc(N)cc(Cl)c5C(F)(F)F)c(F)c4n2)OCC[C@@H]2[C@@H]4CC[C@H](CN32)N4)C1 [Example 33, ethyl 3-((((6aR,7S,10R)-2-(5-amino-3-chloro-2-(trifluoromethyl)phenyl)-1-fluoro-5,6,6a,7,8,9,10,11-octahydro-4-oxa-3,11a,12,14,15-pentaaza-7,10-methanocyclohepta[4,5]cyclo-octa[1,2,3-de]naphthalen-13-yl)oxy)methyl)-3-methylazetidine-1-carboxylate]",286
–,"CC12COCC(COc3nc4c5c(nc(-c6cc(N)cc(Cl)c6C(F)(F)F)c(F)c5n3)OCC[C@@H]3[C@@H]5CC[C@H](CN43)N5)(C1)C2 [Example 48, 3-chloro-5-((6aR,7S,10R)-1-fluoro-13-((5-methyl-3-oxabicyclo[3.1.1]heptan-1-yl)methoxy)-5,6,6a,7,8,9,10,11-octahydro-4-oxa-3,11a,12,14,15-pentaaza-7,10-methanocyclohepta[4,5]cyclo-octa[1,2,3-de]naphthalen-2-yl)-4-(trifluoromethyl)aniline]",296
–,"Cc1cc(N)cc(-c2nc3c4c(nc(OCC56COCC(F)(C5)C6)nc4c2F)N2C[C@H]4CC[C@H](N4)[C@H]2CCO3)c1C(F)(F)F [Example 30, 3-((6aR,7S,10R)-1-fluoro-13-((5-fluoro-3-oxabicyclo[3.1.1]heptan-1-yl)methoxy)-5,6,6a,7,8,9,10,11-octahydro-4-oxa-3,11a,12,14,15-pentaaza-7,10-methanocyclohepta[4,5]cyclo-octa[1,2,3-de]naphthalen-2-yl)-5-methyl-4-(trifluoromethyl)aniline]",198
–,"Oc1cc(Cl)c(C2CC2)c(-c2nc3c4c(nc(OCC56COC(C5)C6)nc4c2F)N2C[C@H]4CC[C@H](N4)[C@H]2CCO3)c1 [Example 38, 3-((6aR,7S,10R)-13-((2-oxabicyclo[2.1.1]hexan-4-yl)methoxy)-1-fluoro-5,6,6a,7,8,9,10,11-octahydro-4-oxa-3,11a,12,14,15-pentaaza-7,10-methanocyclohepta[4,5]cyclo-octa[1,2,3-de]naphthalen-2-yl)-5-chloro-4-cyclopropylphenol]",1870
–,"Cc1cc(N)cc(-c2nc3c4c(nc(OCC56CCC(C)(C5)OC6)nc4c2F)N2C[C@H]4CC[C@H](N4)[C@H]2CCO3)c1C(F)(F)F [Example 51, 3-((6aR,7S,10R)-1-fluoro-13-((1-methyl-2-oxabicyclo[2.2.1]heptan-4-yl)methoxy)-5,6,6a,7,8,9,10,11-octahydro-4-oxa-3,11a,12,14,15-pentaaza-7,10-methanocyclohepta[4,5]cyclo-octa[1,2,3-de]naphthalen-2-yl)-5-methyl-4-(trifluoromethyl)aniline]",272
–,"CN1C(=O)OC2(C)CC1(COc1nc3c4c(nc(-c5cc(N)cc(Cl)c5C(F)(F)F)c(F)c4n1)OCC[C@@H]1[C@@H]4CC[C@H](CN31)N4)C2 [Example 47, 5-((((6aR,7S,10R)-2-(5-amino-3-chloro-2-(trifluoromethyl)phenyl)-1-fluoro-5,6,6a,7,8,9,10,11-octahydro-4-oxa-3,11a,12,14,15-pentaaza-7,10-methanocyclohepta[4,5]cyclo-octa[1,2,3-de]naphthalen-13-yl)oxy)methyl)-1,4-dimethyl-2-oxa-4-azabicyclo[3.1.1]heptan-3-one]",1930
–,"Nc1cc(Cl)c(C(F)(F)F)c(-c2nc3c4c(nc(OC[C@@]56CCCN5C[C@H](F)C6)nc4c2F)N2C[C@H]4CC[C@H](N4)[C@H]2CO3)c1 [Example 17, 3-chloro-5-((5aS,6S,9R)-1-fluoro-12-(((2R,7aS)-2-fluorotetrahydro-1H-pyrrolizin-7a(5H)-yl)methoxy)-5a,6,7,8,9,10-hexahydro-5H-4-oxa-3,10a,11,13,14-pentaaza-6,9-methanonaphtho[1,8-ab]heptalen-2-yl)-4-(trifluoromethyl)aniline]",11
–,"Nc1cc(Cl)c(C(F)(F)F)c(-c2nc3c4c(nc(OC[C@@]56CCCN5C[C@H](F)C6)nc4c2F)N2CC4CCC(N4)C2CO3)c1 (stereo partly drawn) [Example 10, 3-chloro-5-(1-fluoro-12-(((2R,7aS)-2-fluorotetrahydro-1H-pyrrolizin-7a(5H)-yl)methoxy)-5a,6,7,8,9,10-hexahydro-5H-4-oxa-3,10a,11,13,14-pentaaza-6,9-methanonaphtho[1,8-ab]heptalen-2-yl)-4-(trifluoromethyl)aniline]",58
–,"CC12CC(COc3nc4c5c(nc(-c6cc(N)cc(Cl)c6C(F)(F)F)c(F)c5n3)OCC[C@@H]3[C@@H]5CC[C@H](CN43)N5)(CO1)C2 [Example 34, 3-chloro-5-((6aR,7S,10R)-1-fluoro-13-((1-methyl-2-oxabicyclo[2.1.1]hexan-4-yl)methoxy)-5,6,6a,7,8,9,10,11-octahydro-4-oxa-3,11a,12,14,15-pentaaza-7,10-methanocyclohepta[4,5]cyclo-octa[1,2,3-de]naphthalen-2-yl)-4-(trifluoromethyl)aniline]",82
